Source: ChEMBL document CHEMBL1201862, “PubChem BioAssay data set” (2004)
The source made the active and inactive calls. Cut-off read from the data, not from the text of the source: actives have a measured IC50 and inactives only a lower limit.

Assays:
[1] = molecular target: T1, Sentrin-specific protease 7 (Homo sapiens, UniProt Q9BQF6); format: functional;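 note: Luminescence-based dose-response confirmation of ultra-high-throughput screening hits, measuring inhibition of SENP7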
T1 sequence (Q9BQF6 whole entry): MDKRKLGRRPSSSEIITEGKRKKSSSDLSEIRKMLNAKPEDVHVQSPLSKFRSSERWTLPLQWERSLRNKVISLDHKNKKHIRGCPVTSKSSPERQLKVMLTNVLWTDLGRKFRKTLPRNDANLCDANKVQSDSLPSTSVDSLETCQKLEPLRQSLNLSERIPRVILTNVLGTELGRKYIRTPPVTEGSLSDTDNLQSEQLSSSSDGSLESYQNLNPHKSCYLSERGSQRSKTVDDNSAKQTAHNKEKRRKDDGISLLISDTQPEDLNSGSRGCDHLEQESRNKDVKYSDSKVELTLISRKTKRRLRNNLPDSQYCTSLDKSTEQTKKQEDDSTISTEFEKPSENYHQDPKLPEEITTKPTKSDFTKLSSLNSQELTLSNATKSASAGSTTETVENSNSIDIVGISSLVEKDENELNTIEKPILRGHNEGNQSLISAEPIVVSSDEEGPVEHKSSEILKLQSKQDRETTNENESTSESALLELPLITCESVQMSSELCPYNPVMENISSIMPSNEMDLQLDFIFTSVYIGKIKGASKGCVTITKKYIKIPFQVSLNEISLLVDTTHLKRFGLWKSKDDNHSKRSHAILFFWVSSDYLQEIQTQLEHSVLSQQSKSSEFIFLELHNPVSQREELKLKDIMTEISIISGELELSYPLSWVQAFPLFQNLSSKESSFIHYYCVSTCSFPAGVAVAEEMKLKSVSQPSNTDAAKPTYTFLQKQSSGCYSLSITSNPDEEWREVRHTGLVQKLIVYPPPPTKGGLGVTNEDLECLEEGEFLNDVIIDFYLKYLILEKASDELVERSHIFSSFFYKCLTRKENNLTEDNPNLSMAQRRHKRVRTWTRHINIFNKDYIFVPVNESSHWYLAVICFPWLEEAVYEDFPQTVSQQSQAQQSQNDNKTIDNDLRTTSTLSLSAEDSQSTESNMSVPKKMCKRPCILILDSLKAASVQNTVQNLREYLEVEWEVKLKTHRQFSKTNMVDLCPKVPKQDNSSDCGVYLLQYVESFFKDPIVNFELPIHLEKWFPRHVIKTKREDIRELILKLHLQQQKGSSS

[2] = molecular target: T2, Apoptotic protease-activating factor 1 (Homo sapiens, UniProt O14727); format: functional
T2 sequence (O14727 whole entry): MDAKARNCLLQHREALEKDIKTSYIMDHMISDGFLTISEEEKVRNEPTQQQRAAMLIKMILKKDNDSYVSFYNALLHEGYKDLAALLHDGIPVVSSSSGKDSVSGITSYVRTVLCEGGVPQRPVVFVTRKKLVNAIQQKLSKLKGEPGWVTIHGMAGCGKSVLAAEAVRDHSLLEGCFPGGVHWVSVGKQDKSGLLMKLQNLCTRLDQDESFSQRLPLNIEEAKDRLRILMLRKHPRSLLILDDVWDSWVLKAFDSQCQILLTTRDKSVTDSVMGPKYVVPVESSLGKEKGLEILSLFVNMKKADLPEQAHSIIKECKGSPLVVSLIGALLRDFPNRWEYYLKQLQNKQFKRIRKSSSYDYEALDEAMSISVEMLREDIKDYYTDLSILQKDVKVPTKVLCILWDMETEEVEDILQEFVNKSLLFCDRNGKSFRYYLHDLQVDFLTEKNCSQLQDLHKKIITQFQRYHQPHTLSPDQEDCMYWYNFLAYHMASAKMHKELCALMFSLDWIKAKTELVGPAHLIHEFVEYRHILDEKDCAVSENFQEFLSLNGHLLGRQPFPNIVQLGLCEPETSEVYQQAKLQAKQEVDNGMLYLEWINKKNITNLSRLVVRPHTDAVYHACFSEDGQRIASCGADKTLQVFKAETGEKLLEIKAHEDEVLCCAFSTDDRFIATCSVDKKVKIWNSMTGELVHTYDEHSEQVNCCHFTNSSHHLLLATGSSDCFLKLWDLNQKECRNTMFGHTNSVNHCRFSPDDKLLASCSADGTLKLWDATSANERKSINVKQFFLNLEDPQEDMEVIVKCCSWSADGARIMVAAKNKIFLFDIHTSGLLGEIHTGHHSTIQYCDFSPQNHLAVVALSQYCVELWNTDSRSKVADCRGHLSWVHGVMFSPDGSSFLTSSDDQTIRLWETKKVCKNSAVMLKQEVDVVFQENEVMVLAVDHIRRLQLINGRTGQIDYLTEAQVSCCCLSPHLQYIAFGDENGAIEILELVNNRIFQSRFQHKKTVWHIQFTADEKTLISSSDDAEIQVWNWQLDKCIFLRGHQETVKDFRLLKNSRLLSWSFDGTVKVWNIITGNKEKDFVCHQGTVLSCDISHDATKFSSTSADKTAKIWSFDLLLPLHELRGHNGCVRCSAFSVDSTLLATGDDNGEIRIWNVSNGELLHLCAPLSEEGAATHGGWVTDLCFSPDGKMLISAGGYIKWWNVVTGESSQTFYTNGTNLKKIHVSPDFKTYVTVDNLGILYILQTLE

With `O=C1N=C(NS(=O)(=O)Cc2ccccc2)S/C1=C1\C(=O)Nc2ccccc21` the IC50 [1] was 3.76 µM (active).
`Clc1ccc2nc(-c3ccc(Br)s3)cn2c1` was tested, and the IC50 [1] was 7.91 µM (active).
`O=C(CCc1ccccc1)NNc1cc(N2CCCCC2)nc(N2CCCCC2)n1` was tested, and the IC50 [2] was 3.62 µM (active).
`Oc1ccc(N=Nc2c(O)ccc3ccccc23)cc1` was tested, and the IC50 [1] was 8.49 µM (active).
With `O=C1C=C(N2CCCCC2)c2ccccc2C1=O` the IC50 [2] was 2.12 µM (active).
